Assay results: patent US6924314B2, “Compounds for the treatment of metabolic disorders” (Wellstat Therapeutics Corporation, priority 2001, dated 2005)

Assays:
[1] = test system: streptozotocin diabetic mice; test: Serum chemistries and body weights in streptozotocin diabetic mice treated with oral Compound AH for 14 weeks; format: in vivo, Balb/C mice
Experimental: Streptozotocin (STZ) is a toxin that selectively destroys insulin-producing pancreatic beta cells, and is widely used to induce insulin-dependent diabetes in experimental animals.
Female Balb/C mice (8 weeks old; 18-20 grams body weight) were treated with streptozotocin (STZ) (50 mg/kg i.p. on each of five consecutive days). Fourteen days after the last dose of STZ, blood glucose was measured to verify that the animals were diabetic, and the mice were divided into two groups of 5 animals each, one group receiving Compound AH (250 mg/kg) daily by oral gavage, and the other receiving vehicle (0.75% hydroxypropylmethylcellulose, a suspending agent, in water). […] Blood samples were taken periodically for determination of blood glucose concentrations, and body weights were also recorded.
Body weights and blood glucose, triglyceride and cholesterol concentrations 14 weeks after the beginning of drug treatment are shown in Table 1.

[2] = test system: mice with lethal insulin-dependent diabetes; test: Survival of mice with lethal insulin-dependent diabetes (single dose streptozotocin); format: in vivo, Balb/C mice; conditions: 250 mg/kg/day oral gavage
Experimental: Female Balb/C mice (14 weeks old) were treated with a single dose of streptozotocin (175 mg/kg i.p.) to induce severe insulin-dependent diabetes. Seven days later, mice were divided into three treatment groups: Compound AH, pioglitazone, and vehicle. Mice were treated daily via oral gavage, and survival was monitored over time.

NOD mice = test: Incidence of spontaneous diabetes and mortality in NOD mice; format: in vivo; conditions: 200 mg/kg/day oral, seven months
Experimental: A substantial proportion of NOD (“non-obese diabetic”) mice develop insulin-dependent diabetes as a consequence of spontaneous autoimmune destruction of pancreatic islet cells. Two groups of 20 NOD mice (6 weeks old) were treated daily with either oral Vehicle (0.4 ml of 0.75% hydroxypropyl methylcellulose in water; HPMC) or Compound AH (200 mg/kg/day) suspended in HPMC. The incidence of mortality due to spontaneous development of severe insulin-dependent diabetes was monitored over a period of seven months. At the end of this time, 13/20 mice treated with vehicle had died of uncontrolled diabetes, whereas only 5/20 mice treated with Compound AH had died.

[3] = test system: ob/ob obese diabetic mice; test: Acute hypoglycemic effect in ob/ob obese diabetic mice: Experiment 1; format: in vivo; conditions: single oral dose by gavage, 6 hours
Experimental: Male ob/ob diabetic mice were randomized into groups of five animals each. Body weights were 50-55 g and blood glucose was approximately 300 mg/dL in the fed state. A single oral dose of a test substance suspended in 0.5% carboxymethylcellulose vehicle was administered by gavage. Blood glucose was measured in blood droplets obtained by nicking a tail vein with a razor using glucometer test strips and a Glucometer Elite XL device (Bayer) at 0, 0.5, 2, 4, 6 and 18 hours after the initial dosing. A 10% reduction in blood glucose versus oral vehicle is considered a positive screening result. Blood glucose reductions were generally maximal at 6 hours after drug administration.

[4] = streptozotocin diabetic Balb/C mice, 250 mg/kg daily oral gavage, 14 weeks

O=C(O)CCC(=O)c1ccc(OCc2c(F)cccc2F)cc1 [Compound AH, 4-(4-(2,6-Difluorobenzyloxy)phenyl)-4-oxobutyric acid]
blood glucose concentrations ([1]; 250 mg/kg daily oral, after several weeks of treatment): began to decrease toward baseline | metabolic abnormalities associated with insulin-dependent diabetes ([1]; oral treatment, 250 mg/kg daily): significant amelioration | Body Weight [1, 4]: 21.7 ± 0.8 g | Cholesterol [1, 4]: 82 ± 2 mg/dL | Glucose [1, 4]: 207 ± 12 mg/dL | Triglycerides [1, 4]: 62 ± 7 mg/dL | body weights of survivors at 12 weeks [2]: recovered and were maintained in the normal range | Survivors (Survival at 12 weeks) ([2]; STZ 175 mg/kg i.p. Balb/C mice): 4/5 | mortality due to spontaneous severe insulin-dependent diabetes (NOD mice): 5/20 | % Reduction vs Control [3]: −24.9 ± 3.7% | Blood Glucose after 6 hours [3]: 223 ± 11 mg/dL
